# According to paper PMC9667784, “Synthesis, biological evaluation and computational studies of pyrazole derivatives as Mycobacterium tuberculosis CYP121A1 inhibitors” (RSC Medicinal Chemistry, 2022):
# Target: BTFA-labelled CYP121_S171C (Mycobacterium tuberculosis, UniProt P9WPP7, S171C)
# Type: binding
row,Structure (SMILES),19F NMR perturbations of the FG-loop compared with cYY
1,"CCOc1ccc(-c2nn(-c3ccc(Cl)cc3)cc2Cn2cncn2)cc1 [12d, 1-((1-(4-Chlorophenyl)-3-(4-ethoxyphenyl)-1H-pyrazol-4-yl)methyl)-1H-1,2,4-triazole]",more intense than that of cYY
2,"COc1ccc(-c2nn(-c3ccc(Cl)cc3)cc2Cn2cncn2)cc1 [12b, 1-((1-(4-Chlorophenyl)-3-(4-methoxyphenyl)-1H-pyrazol-4-yl)methyl)-1H-1,2,4-triazole]",more intense than that of cYY
